Patent US6387933B1, “Insecticidal compositions and insecticidal methods” (Sumitomo Chemical Company, Limited, priority 2001, dated 2002)

Experiments:
silverleaf whiteflies [1] = assay: Test Example 2: spray on cabbage seedlings infested with silverleaf whiteflies; type: in vivo; settings: 8 days after spray
Description: (§1) Cabbage seedlings planted in 3 ounces plastic cup were placed in a net cage containing many living silverleaf whiteflies for 24 hours, so that many silverleaf whiteflies became parasitic on the cabbage seedlings. A designated amount of each of acetamiprid on the market (commercial name, Mospilan water-soluble powder: produced by Nippon Soda), pyriproxyfen on the market (commercial name, Lano emulsifiable concentrate: produced by Sumitomo Chemical) and a mixture of acetamiprid and pyriproxyfen on the market were diluted with water, and then sprayed over the cabbage seedlings with spray gun. The number of silverleaf whiteflies (i.e., the total number of adults and larvae) surviving on the cabbage seedlings was examined just before and after 8 days from the treatment.

silverleaf whiteflies [2] = assay: Test Example 1: spray on cabbage seedlings infested with silverleaf whiteflies; type: in vivo; settings: 50 ppm; adults and larvae on cabbage seedling, 8 days after spray
Description: as §1

SMILES	Number of surviving insects/pot after 8 days (silverleaf whiteflies [1]; 5 ppm) [insects/pot]	Number of surviving insects/pot after 8 days (silverleaf whiteflies [1]; 10 ppm) [insects/pot]	Number of surviving insects/pot after 8 days (silverleaf whiteflies [1]; 50 ppm) [insects/pot]	Number of surviving insects/pot after 8 days (silverleaf whiteflies [2]) [insects/pot]
C/C(=N\C#N)N(C)Cc1ccc(Cl)nc1 [acetamiprid, (E)-N^1-[(6-chloro-3-pyridyl)methyl]-N^2-cyano-N^1-methylacetamidine]	41	16	24	69
CC(COc1ccc(Oc2ccccc2)cc1)Oc1ccccn1 (centres unmarked) [pyriproxyfen, 4-phenoxyphenyl 2-(2-pyridyloxy)propyl ether]	41	114	69	21
